The text below walks through data of patent US12391675B2, “NLRP3 modulators” (INNATE TUMOR IMMUNITY, INC., priority 2019, dated 2025).

T1 sequence (Q96P20 whole entry): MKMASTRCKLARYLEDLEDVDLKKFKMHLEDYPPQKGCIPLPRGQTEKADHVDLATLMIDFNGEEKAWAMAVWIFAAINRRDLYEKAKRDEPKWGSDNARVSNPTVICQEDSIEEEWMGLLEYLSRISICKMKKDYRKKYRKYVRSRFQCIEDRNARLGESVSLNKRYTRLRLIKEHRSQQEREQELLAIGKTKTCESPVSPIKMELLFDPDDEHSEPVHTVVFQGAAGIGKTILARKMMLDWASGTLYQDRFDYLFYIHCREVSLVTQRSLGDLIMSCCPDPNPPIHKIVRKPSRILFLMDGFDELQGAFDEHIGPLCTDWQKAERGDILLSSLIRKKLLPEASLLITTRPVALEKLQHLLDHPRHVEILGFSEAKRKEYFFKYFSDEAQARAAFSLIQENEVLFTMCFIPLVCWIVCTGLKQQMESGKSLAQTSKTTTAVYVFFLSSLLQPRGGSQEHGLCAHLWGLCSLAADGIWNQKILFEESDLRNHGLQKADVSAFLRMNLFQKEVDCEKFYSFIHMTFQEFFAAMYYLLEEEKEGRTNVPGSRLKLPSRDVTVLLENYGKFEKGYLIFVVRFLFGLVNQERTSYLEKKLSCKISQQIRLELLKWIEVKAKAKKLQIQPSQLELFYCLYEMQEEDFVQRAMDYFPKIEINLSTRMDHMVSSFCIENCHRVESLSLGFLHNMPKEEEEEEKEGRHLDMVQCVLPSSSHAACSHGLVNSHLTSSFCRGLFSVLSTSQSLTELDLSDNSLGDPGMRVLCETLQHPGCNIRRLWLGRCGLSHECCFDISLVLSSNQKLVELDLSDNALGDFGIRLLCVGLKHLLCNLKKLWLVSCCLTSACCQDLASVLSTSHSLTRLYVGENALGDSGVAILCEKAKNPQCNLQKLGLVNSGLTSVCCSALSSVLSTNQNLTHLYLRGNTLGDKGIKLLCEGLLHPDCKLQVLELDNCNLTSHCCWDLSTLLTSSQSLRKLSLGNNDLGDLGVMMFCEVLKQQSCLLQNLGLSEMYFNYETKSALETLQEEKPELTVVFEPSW

This assay addresses T1, NLRP3 (Homo sapiens, UniProt Q96P20).
T1 construct: host or cells: PMA-differentiated THP-1 cells
Briefly: Measurement of IL-1β production in PMA-differentiated THP-1 cells (NLRP3 hIL1B EC50). The class given is cell-based. The protocol:
Measurement of IL-1β Production in PMA-Differentiated THP-1 Cells
THP-1 cells were purchased from the American Type Culture Collection and sub-cultured according to instructions from the supplier. Prior to experiments, cells were cultured in RPMI 1640 containing 10% heat inactivated FBS, penicillin (100 units/ml) and streptomycin (100 μg/ml), and maintained in log phase prior to experimental setup. Prior to the experiment THP-1 were treated with PMA (Phorbol 12-myristate 13-acetate) (10 μg/ml) for 24 hours. The day of the experiment the media was removed and attaching cells were treated with trypsin for 2 minutes, cells were then collected, washed with PBS (phosphate buffer saline), spin down, resuspended in 2% heat inactivated FBS with RPMI at a concentration of 1×10^6 cells/ml, and 100 μl was plated in a 96 well plate. Compounds were dissolved in dimethyl sulfoxide (DMSO) and added to the culture medium to achieve desired concentration (e.g. 100, 30, 10, 3, 1, 0.3 or 0.1 μM). Cells were incubated with compounds for 4 hours. Cell free supernatant was collected and the production of IL-1β was evaluated by ELISA. A vehicle only control was run concurrently with each experiment. Final DMSO concentration was 1%.
Measurement of IL-1β Production in PMA-Differentiated THP-1 Cells (Alternative Procedure)
THP-1 cells were purchased from the American Type Culture Collection and sub-cultured according to instructions from the supplier. Prior to experiments, cells were cultured in RPMI 1640 containing 10% heat inactivated FBS, penicillin (100 units/ml), streptomycin (100 μg/ml), HEPES (10 mM) and sodium pyruvate (1 mM) and maintained in log phase prior to experimental setup. Prior to the experiment, THP-1 cells were treated with PMA (Phorbol 12-myristate 13-acetate) (20 μg/ml) overnight. The day of the experiment, the media was removed and attached cells were treated with trypsin for 2 minutes, cells were then collected, washed with PBS (phosphate buffer saline), pelleted by centrifugation and resuspended in 2% heat inactivated FBS with RPMI at a concentration of 50,000 cells/well in a 384 well plate. Cell free supernatant was collected and the production of IL-1β was evaluated by ELISA. Compounds were dissolved in dimethyl sulfoxide (DMSO) and added to the culture medium to achieve desired concentration (e.g. 100, 30, 10, 3, 1, 0.3 or 0.1 μM). Cells were incubated with compounds for 2 hours. A vehicle only control was run concurrently with each experiment. Final DMSO concentration was 1%.
Measurement of IL-1β Production—hTRF Protocol (Second Alternative Procedure)
Serial dilutions of compounds in DMSO were added to low volume 384 well plates at 100 nl/well using an ECHO 550 acoustic dispenser (Labcyte) to achieve final starting concentration of 10 μM in assay.
THP-1 cells in RPMI (Gibco, 11875) media with 10% FBS at a density of 1×10^6 cell/ml in a T175 flask were treated with a final concentration of phorbol 12-myristate 13-acetate (PMA) (Sigma, P1585) of 50 ng/ml overnight at 37° C. at 5% CO2 for differentiation. Cells were harvested the next day after rinsing well wth dPBS using 0.5% trypsin. A cell solution was prepared of 1×10^6 cells/ml for 50,000 cells in 50 μl/well in RPMI media with 2% FBS. Cells were plated using a multichannel pipette onto the compound dilutions in Greiner, 384 well, black clear bottom tissue culture treated plates (781090). The plates were incubated in 37° C. incubator at 5% CO2 for 2 hours.
After the 2 hour incubation, the cell plates were spun in the centrifuge for 5 minutes at 1200 rpm. Using the Felix (CyBio), 8 μl of the supernatant was transferred to 384 well, low volume, white proxy plates. (Perkin Elmer, 6008230). A human IL1beta hTRF kit was used to analyze the supernatant (CISBIO, 62HIL1BPEG). The kit instructions were followed for preparing the IL1Beta standard curve and then the antibodies from the kit were diluted 1:40 rather than 1:20 as kit instructed. […]
For orientation: EC50 means the concentration giving half of the maximal effect. A high value points to lower potency in that assay. Turning to `Nc1nc(NC23CC(CO)(C2)C3)c2ccc(-c3ccn[nH]3)cc2n1` [Example 7], the EC50 turned out to be 0.2 µM.
Next, `Nc1cc(N2CC3CCC(C2)O3)c2ccc(-c3ccn[nH]3)cc2n1` [Example 23]: 0.74 µM.
For the molecule `Nc1nc(NCC23CC(CO)(C2)C3)c2ccc(-c3ccn[nH]3)cc2n1` [Example 34, (3-(((2-amino-7-(1H-pyrazol-5-yl)quinazolin-4-yl)amino)methyl)bicyclo[1.1.1]pentan-1-yl)methanol], the 50% effective concentration (EC50) was determined as 3.96 µM.
Next, `Nc1cc(NC2CC3(CC(O)C3)C2)c2ccc(-c3ccn[nH]3)cc2n1` (single isomer, unassigned) [Example 26B, (Ra)-6-(2-amino-7-(1H-pyrazol-5-yl)quinolin-4-ylamino)spiro[3.3]heptan-2-ol]: 0.25 µM.
On to `Nc1cc(N2C3CCC2COC3)c2ncc(-c3cc[nH]n3)cc2n1` [Example 24, 4-(3-oxa-8-azabicyclo[3.2.1]octan-8-yl)-7-(1H-pyrazol-3-yl)-1,5-naphthyridin-2-amine], for which the EC50 came out at 0.89 µM.
With `Nc1nc(NC23CC4CC(CC(O)(C4)C2)C3)c2ccc(-c3cc[nH]n3)cc2n1` [Example 11, (1s,3r,5R,7S)-3-((2-Amino-7-(1H-pyrazol-3-yl)quinazolin-4-yl)amino)adamantan-1-ol], the EC50 worked out at 2.11 µM.
For `Nc1nc(N[C@H]2C[C@@H]3C[C@H]2[C@@H](O)C3)c2ccc(-c3ccn[nH]3)cc2n1` (single isomer, unassigned) [Example 45B], the midpoint of the response, the EC50, lay at 3 µM.
Next, `CC(C)(C)OC(=O)N1CCC2(CC1)CC2Nc1nc(N)nc2cc(-c3cc[nH]n3)ccc12` (single isomer, unassigned) [Example 28A]: 1.94 µM.
As to `Nc1nc(NC2C3CCC(C3)C2CO)c2ccc(-c3ccn[nH]3)cc2n1` (stereo not shown) [Example 5], a half-maximal effect (EC50) was put at 0.81 µM.
Take `Nc1cc(N2C3CCC2COC3)c2ccc(-c3ccn[nH]3)cc2n1` [Example 22]: the EC50 turned out to be 2 µM.
As for `Nc1nc(N2C3CCC2COC3)c2ccc(-c3cc[nH]n3)cc2n1` [Example 12], the EC50 was found to be 0.64 µM.
On to `Nc1cc(N[C@H]2C3CCC(C3)[C@H]2CO)c2ccc(-c3ccn[nH]3)cc2n1` (single isomer, unassigned) [Example 18B], for which the EC50 is 0.98 µM.
Next, `Nc1nc(NC2CC3CC(O)C2C3)c2ccc(-c3ccn[nH]3)cc2n1` (single isomer, unassigned) [Example 41A]: 0.16 µM; `Nc1cc(NCC23CCC(CC2)OC3)c2ccc(-c3cc[nH]n3)cc2n1` [Example 48, N4-((2-oxabicyclo[2.2.2]octan-4-yl)methyl)-7-(1H-pyrazol-3-yl)quinoline-2,4-diamine]: 0.57 µM; `Nc1nc(NCC2C[C@H]3CC[C@@H]2CC3)c2ccc(-c3cc[nH]n3)cc2n1` (stereo partly shown) [Example 39]: 0.86 µM.
`Nc1nc(N[C@H]2C[C@@H]3C[C@H]2[C@@H](O)C3)c2ccc(-c3ccn[nH]3)cc2n1` (single isomer, unassigned) [Example 45A] yielded a 50% effective concentration (EC50) of 2.12 µM.
For `Nc1nc(N[C@H]2C[C@@H]3C[C@H]2C[C@H]3O)c2ccc(-c3ccn[nH]3)cc2n1` (single isomer, unassigned) [Example 43A] the value was 1.64 µM.
Next, `Nc1cc(OCC23CCC(CC2)OC3)c2ccc(-c3cc[nH]n3)cc2n1` [Example 47, 4-((2-oxabicyclo[2.2.2]octan-4-yl)methoxy)-7-(1H-pyrazol-3-yl)quinolin-2-amine]: 0.32 µM; `Nc1cc(NCC23CCC(CO)(CC2)OC3)c2ccc(-c3ccsc3)cc2n1` [Example 51, (4-(((2-amino-7-(thiophen-3-yl)quinolin-4-yl)amino)methyl)-2-oxabicyclo[2.2.2]octan-1-yl)methanol]: 1.86 µM.
`Nc1cc(NC2COCCC23OCCO3)c2ccc(-c3cc[nH]n3)cc2n1` (stereo not shown) [Example 33, 7-(1H-pyrazol-3-yl)-N4-(1,4,8-trioxaspiro[4.5]decan-6-yl)quinoline-2,4-diamine] yielded an EC50 of 17.4 µM.
For `Nc1nc(N2CC3CC2CO3)c2ccc(-c3cc[nH]n3)cc2n1` (racemic) [Example 9, rac-4-(2-oxa-5-azabicyclo[2.2.1]heptan-5-yl)-7-(1H-pyrazol-3-yl)quinazolin-2-amine] the value was 0.68 µM; for `Nc1nc(NC2CC23CC3)c2ccc(-c3cc[nH]n3)cc2n1` (single isomer, unassigned) [Example 36B], 0.13 µM.
Molecule `Nc1nc(N[C@@H]2C[C@H]3CC[C@@H]2O3)c2ccc(-c3ccn[nH]3)cc2n1` (racemic) [Example 1, rac-N4-((1R,2S,4S)-7-oxabicyclo[2.2.1]heptan-2-yl)-7-(1H-pyrazol-5-yl)quinazoline-2,4-diamine] yielded an EC50 of 0.12 µM.
`Nc1nc(NC2CC23CC3)c2ccc(-c3cc[nH]n3)cc2n1` (stereo not shown) [Example 35] had an EC50 of 0.19 µM.
For `Nc1nc(N[C@H]2[C@@H]3COC[C@@H]32)c2ccc(-c3ccn[nH]3)cc2n1` [Example 4] the value was 0.31 µM.
